{"source": "patent US20230107216A1", "about": "“PANTETHEINE DERIVATIVES AND USES THEREOF” (Comet Therapeutics, Inc., priority 2018, published 2023)", "key": {"[1]": {"tested_on": "Peripheral blood mononuclear cells co-cultured with venular endothelial cells (HUVEC) (LPS system)", "assay": "BioMAP LPS system", "type": "cell-based, human", "details": "procedure of Example 827; for inhibition at 10 µM / inhibition at 1 µM / activation at 10 µM: Homo sapiens, HUVEC, 24 h; for activation at 10 µM: read-out: % increase in sTNFα"}, "[2]": {"tested_on": "Dermal fibroblasts (HDF3CGF system)", "assay": "BioMAP HDF3CGF system (IL-1β, TNFα, IFNγ, EGF, bFGF, PDGF-BB)", "type": "cell-based, human"}, "[3]": {"tested_on": "Peripheral blood mononuclear cells co-cultured with B-cells (BT system)", "details": "procedure of Example 829"}, "[4]": {"tested_on": "monocyte-derived M1 macrophages", "assay": "M1 differentiation assay (macrophage TNFα, IL6, IL10 ELISA, FACS)", "type": "cell-based, human", "details": "Homo sapiens, Macrophage, 10 uM", "procedure,_shortened": "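CD14+ human blood monocytes (100,000) differentiated 6 days with 10 ng/ml GM-CSF plus compound at 10 or 50 μM, refreshed days 2 and 4. Matured 24 h with GM-CSF, IFNγ, LPS plus compound. Supernatant TNFα, IL6, IL10 by ELISA; FACS M1 phenotype CD86+CD68+CD163−.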"}, "[5]": {"details": "10 uM, read-out: % decrease in IL-1α"}, "[6]": {"details": "10 uM, read-out: % decrease in TissueFactor"}, "[7]": {"details": "10 uM, read-out: % decrease in sPGE2"}}, "note": "Read-outs that look alike come from different tables or passages of the source.", "data": [{"smiles": "COC(=O)CC(SCCNC(=O)CCNC(=O)[C@H](O)C(C)(C)COC(C)=O)C(=O)OC", "note": "(stereo partly drawn) [Compound 149, 1,4-dimethyl 2-[(2-[3-[(2R)-4-(acetyloxy)-2-hydroxy-3,3-dimethylbutanamido]propanamido]ethyl)sulfanyl]butanedioate]", "values": [{"measurement": "% increase in Tissue Factor", "setting": "[1]; 1 uM", "result": "≥10", "unit": "%"}, {"measurement": "% increase in IL-8", "setting": "[1]; 10 uM", "result": "≥10", "unit": "%"}, {"measurement": "inhibition at 10 µM", "setting": "[1]; [5]", "result": "≥ 10", "unit": "%"}, {"measurement": "inhibition at 10 µM", "setting": "[1]; [6]", "result": "≥ 20", "unit": "%"}, {"measurement": "inhibition at 10 µM", "setting": "[1]; [7]", "result": "≥ 10", "unit": "%"}, {"measurement": "% increase in Collagen I", "setting": "[2]; 1 uM, procedure of Example 833", "result": "≥10", "unit": "%"}, {"measurement": "% increase in sIL-2", "setting": "[3]; 10 uM", "result": "≥20", "unit": "%"}, {"measurement": "% increase in sTNFα", "setting": "[3]; 10 uM", "result": "≥10", "unit": "%"}]}, {"smiles": "CC(C)(COC(=O)OCC[N+](C)(C)C)[C@@H](O)C(=O)NCCC(=O)NCCSC(=O)CCC(=O)O", "note": "[Compound 116, [2-([[(3R)-3-[[2-([2-[(3-carboxypropanoyl)sulfanyl]ethyl]carbamoyl)ethyl]carbamoyl]-3-hydroxy-2,2-dimethylpropoxy]carbonyl]oxy)ethyl]trimethylazanium]", "values": [{"measurement": "inhibition at 10 µM", "setting": "[1]; [5]", "result": "≥ 10", "unit": "%"}, {"measurement": "% decrease in Collagen I", "setting": "[2]; 10 uM, procedure of Example 833", "result": "≥10", "unit": "%"}, {"measurement": "% decrease in B-cell proliferation", "setting": "[3]; 1 uM", "result": "≥10", "unit": "%"}, {"measurement": "% decrease in sTNFα", "setting": "[3]; 10 uM", "result": "≥10", "unit": "%"}]}, {"smiles": "COC(=O)CCC(=O)SCCNC(=O)CCNC(=O)[C@H](OC(=O)CNC(C)=O)C(C)(C)CO", "note": "[Compound 1298, methyl 4-[(2-[3-[(2R)-2-[(2-acetamidoacetyl)oxy]-4-hydroxy-3,3-dimethylbutanamido]propanamido]ethyl)sulfanyl]-4-oxobutanoate]", "values": [{"measurement": "% decrease in M-CSF", "setting": "[1]; 1 uM", "result": "≥20", "unit": "%"}, {"measurement": "% decrease in sTNFα", "setting": "[1]; 1 uM", "result": "≥10", "unit": "%"}, {"measurement": "% decrease in Thrombomodulin", "setting": "[1]; 10 uM", "result": "≥10", "unit": "%"}, {"measurement": "inhibition at 1 µM", "setting": "[1]; 1 uM, read-out: % decrease in IL-8", "result": "≥ 10", "unit": "%"}, {"measurement": "inhibition at 1 µM", "setting": "[1]; 1 uM, read-out: % decrease in sPGE2", "result": "≥ 20", "unit": "%"}, {"measurement": "inhibition at 10 µM", "setting": "[1]; [5]", "result": "≥ 10", "unit": "%"}, {"measurement": "inhibition at 10 µM", "setting": "[1]; [6]", "result": "≥ 10", "unit": "%"}, {"measurement": "activation at 10 µM", "setting": "[1]; 10 uM", "result": "≥ 10", "unit": "%"}, {"measurement": "% decrease in TIMP-1", "setting": "[2]; 1 uM", "result": "≥10", "unit": "%"}, {"measurement": "% decrease in TIMP-2", "setting": "[2]; 1 uM", "result": "≥10", "unit": "%"}, {"measurement": "% increase in B-cell Proliferation", "setting": "[3]; 1 uM", "result": "≥10", "unit": "%"}, {"measurement": "% increase in sIL-17", "setting": "[3]; 1 uM", "result": "≥20", "unit": "%"}, {"measurement": "% decrease in sTNFα", "setting": "[3]; 10 uM", "result": "≥10", "unit": "%"}]}, {"smiles": "CC(=O)SCCNC(=O)CCNC(=O)[C@H](O)C(C)(C)COC(=O)[C@H](C)N", "note": "[Compound 502, (3R)-3-[(2-[[2-(acetylsulfanyl)ethyl]carbamoyl]ethyl)carbamoyl]-3-hydroxy-2,2-dimethylpropyl (2S)-2-aminopropanoate]", "values": [{"measurement": "inhibition at 10 µM", "setting": "[1]; 10 uM, read-out: % decrease in IL-8", "result": "≥ 10", "unit": "%"}, {"measurement": "inhibition at 10 µM", "setting": "[1]; [6]", "result": "≥ 10", "unit": "%"}, {"measurement": "inhibition at 10 µM", "setting": "[1]; [7]", "result": "≥ 10", "unit": "%"}, {"measurement": "% increase in SRB", "setting": "[2]; 1 uM", "result": "≥10", "unit": "%"}]}, {"smiles": "C[C@@H](O)CC(=O)CC(=O)SCCNC(=O)CCNC(=O)[C@H](O)C(C)(C)CO", "note": "[Compound 42, (2R)-2,4-dihydroxy-N-[2-[(2-[[(5R)-5-hydroxy-3-oxohexanoyl]sulfanyl]ethyl)carbamoyl]ethyl]-3,3-dimethylbutanamide]", "values": [{"measurement": "% decrease in Thrombomodulin", "setting": "[1]; 10 uM", "result": "≥10", "unit": "%"}, {"measurement": "inhibition at 10 µM", "setting": "[1]; [6]", "result": "≥ 10", "unit": "%"}, {"measurement": "activation at 10 µM", "setting": "[1]; 10 uM", "result": "≥ 10", "unit": "%"}, {"measurement": "% increase in sIL-2", "setting": "[3]; 10 uM", "result": "≥10", "unit": "%"}, {"measurement": "% increase in sTNFα", "setting": "[3]; 10 uM", "result": "≥10", "unit": "%"}]}, {"smiles": "CC(=O)OCC(C)(C)[C@@H](OC(C)=O)C(=O)NCCC(=O)NCCSC(C)=O", "note": "[Compound 1264, (1R)-3-(acetyloxy)-1-[(2-[[2-(acetylsulfanyl)ethyl]carbamoyl]ethyl)carbamoyl]-2,2-dimethylpropyl acetate]", "values": [{"measurement": "% increase in PAI-I", "setting": "[2]; 1 uM", "result": "≥10", "unit": "%"}, {"measurement": "% increase in TIMP-2", "setting": "[2]; 10 uM", "result": "≥10", "unit": "%"}, {"measurement": "activation at 10 µM", "setting": "[2]; Homo sapiens, Fibroblast, 72 h, 10 uM, read-out: % increase in 72 Hour Proliferation", "result": "≥ 10", "unit": "%"}, {"measurement": "% decrease in sTNFα", "setting": "[3]; 10 uM", "result": "≥10", "unit": "%"}, {"measurement": "% increase in B-cell Proliferation", "setting": "[3]; 10 uM", "result": "≥10", "unit": "%"}]}, {"smiles": "CC(C)(CO)[C@@H](O)C(=O)NCCC(=O)NCCSC(=O)C1CCC(=O)N1", "note": "(stereo partly drawn) [Compound 1227, S-2-{3-[(R)-2,4-dihydroxy-3,3-dimethylbutyrylamino]propionylamino}ethyl 5-oxo-2-pyrrolidinecarbothioate]", "values": [{"measurement": "activation at 10 µM", "setting": "[4]; read-out: % Increase in IL-10 Secretion", "result": "≥ 30", "unit": "%"}, {"measurement": "inhibition at 10 µM", "setting": "[4]; read-out: % decrease in Macrophage TNFα Secretion", "result": "≥ 30", "unit": "%"}]}]}
